Assay results taken from publication PMC9030254, “Target Hopping from Protein Kinases to PXR: Identification of Small-Molecule Protein Kinase Inhibitors as Selective Modulators of Pregnane X Receptor from TüKIC Library” (Cells, 2022).

Key:
Assay in all cases: Kinase profiling
Format in all cases: biochemical
MINK1 = target: T1, MINK1 (Homo sapiens, UniProt Q8N4C8)
T1 construct: purchased ProQinase (Freiburg, Germany)
Protocol: (§1) The analysis was performed by ProQinase (Freiburg, Germany).

RPS6KA5 = target: T2, RPS6KA5 (Homo sapiens, UniProt O75582)
T2 construct: purchased ProQinase (Freiburg, Germany)
Protocol: as §1

GSK3alpha = target: T3, GSK3alpha (Homo sapiens, UniProt P49840)
T3 construct: purchased ProQinase (Freiburg, Germany)
Protocol: as §1

MST2 = target: T4, MST2 (Homo sapiens, UniProt Q13188)
T4 construct: purchased ProQinase (Freiburg, Germany)
T4 sequence (Q13188 1-491): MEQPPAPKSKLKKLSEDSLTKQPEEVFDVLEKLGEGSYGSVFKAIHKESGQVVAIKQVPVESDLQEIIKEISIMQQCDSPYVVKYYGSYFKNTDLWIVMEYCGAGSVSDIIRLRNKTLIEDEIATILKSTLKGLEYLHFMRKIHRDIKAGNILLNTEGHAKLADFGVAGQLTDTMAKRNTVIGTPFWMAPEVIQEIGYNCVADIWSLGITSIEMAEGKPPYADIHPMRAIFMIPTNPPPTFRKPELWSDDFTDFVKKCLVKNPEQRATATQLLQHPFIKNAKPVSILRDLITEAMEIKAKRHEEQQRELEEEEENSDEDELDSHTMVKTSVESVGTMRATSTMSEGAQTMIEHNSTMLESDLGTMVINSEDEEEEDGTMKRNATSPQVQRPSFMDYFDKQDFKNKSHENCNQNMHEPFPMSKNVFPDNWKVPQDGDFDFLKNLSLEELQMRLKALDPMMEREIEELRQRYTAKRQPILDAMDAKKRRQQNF
Protocol: as §1

MAP4K2 = target: T5, MAP4K2 (Homo sapiens, UniProt Q12851)
T5 construct: purchased ProQinase (Freiburg, Germany)
T5 sequence (Q12851 1-820): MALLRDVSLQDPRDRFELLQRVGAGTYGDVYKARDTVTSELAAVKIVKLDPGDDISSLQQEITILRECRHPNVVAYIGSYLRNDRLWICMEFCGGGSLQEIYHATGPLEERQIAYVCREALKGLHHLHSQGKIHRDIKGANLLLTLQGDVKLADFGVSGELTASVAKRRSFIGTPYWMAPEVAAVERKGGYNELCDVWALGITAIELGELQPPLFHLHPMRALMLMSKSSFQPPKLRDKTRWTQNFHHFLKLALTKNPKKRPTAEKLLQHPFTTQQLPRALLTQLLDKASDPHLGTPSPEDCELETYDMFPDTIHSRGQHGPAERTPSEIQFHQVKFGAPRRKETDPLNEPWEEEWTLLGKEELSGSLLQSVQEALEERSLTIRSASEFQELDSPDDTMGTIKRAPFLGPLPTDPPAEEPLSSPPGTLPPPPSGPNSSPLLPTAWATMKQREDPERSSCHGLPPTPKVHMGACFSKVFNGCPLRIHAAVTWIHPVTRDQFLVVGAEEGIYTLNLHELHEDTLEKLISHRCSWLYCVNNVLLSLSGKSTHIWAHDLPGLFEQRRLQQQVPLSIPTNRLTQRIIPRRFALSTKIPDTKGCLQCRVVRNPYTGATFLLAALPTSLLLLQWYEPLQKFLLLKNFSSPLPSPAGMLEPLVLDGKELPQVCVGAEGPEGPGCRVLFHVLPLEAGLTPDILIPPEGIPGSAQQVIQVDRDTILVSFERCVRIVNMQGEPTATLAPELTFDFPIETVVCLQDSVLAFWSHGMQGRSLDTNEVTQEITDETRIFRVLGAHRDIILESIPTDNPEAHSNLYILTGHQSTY
Protocol: as §1

EPHA4 = target: T6, EPHA4 (Homo sapiens, UniProt P54764)
T6 construct: purchased ProQinase (Freiburg, Germany)
Protocol: as §1

CDK1/CycE1 = target: T7, CDK1/CycE1 (Homo sapiens, UniProt P06493)
T7 construct: purchased ProQinase (Freiburg, Germany)
Protocol: as §1

TGFBR2 = target: T8, TGFBR2 (Homo sapiens, UniProt P37173)
T8 construct: purchased ProQinase (Freiburg, Germany)
Protocol: as §1

MAP3K11 = target: T9, MAP3K11 (Homo sapiens, UniProt Q16584)
T9 construct: purchased ProQinase (Freiburg, Germany)
Protocol: as §1

PKCepsilon = target: T10, PKCepsilon (Homo sapiens, UniProt Q02156)
T10 construct: purchased ProQinase (Freiburg, Germany)
T10 sequence (Q02156 1-737): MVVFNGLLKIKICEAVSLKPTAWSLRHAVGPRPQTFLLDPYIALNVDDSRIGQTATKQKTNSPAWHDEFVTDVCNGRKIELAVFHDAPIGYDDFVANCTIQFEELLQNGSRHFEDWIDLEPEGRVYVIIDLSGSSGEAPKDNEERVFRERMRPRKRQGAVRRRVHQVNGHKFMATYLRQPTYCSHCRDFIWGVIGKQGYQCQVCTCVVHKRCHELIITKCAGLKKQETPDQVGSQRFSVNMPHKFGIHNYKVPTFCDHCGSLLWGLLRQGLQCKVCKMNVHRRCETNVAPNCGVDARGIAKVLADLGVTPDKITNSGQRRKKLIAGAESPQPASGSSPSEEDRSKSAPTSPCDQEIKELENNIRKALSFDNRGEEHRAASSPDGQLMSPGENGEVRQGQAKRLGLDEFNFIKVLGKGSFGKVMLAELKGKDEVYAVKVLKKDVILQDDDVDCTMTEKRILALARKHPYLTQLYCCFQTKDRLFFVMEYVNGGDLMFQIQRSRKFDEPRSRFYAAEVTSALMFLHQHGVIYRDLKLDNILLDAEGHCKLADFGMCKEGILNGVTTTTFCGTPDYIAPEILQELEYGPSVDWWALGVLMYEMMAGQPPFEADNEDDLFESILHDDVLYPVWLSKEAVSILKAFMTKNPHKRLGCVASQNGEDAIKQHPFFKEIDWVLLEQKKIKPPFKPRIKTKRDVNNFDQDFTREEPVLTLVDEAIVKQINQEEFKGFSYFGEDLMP
Protocol: as §1

JNK3 = target: T11, JNK3 (Homo sapiens, UniProt P53779)
T11 construct: purchased ProQinase (Freiburg, Germany)
Protocol: as §1

ABL2 = target: T12, ABL2 (Homo sapiens, UniProt P42684)
T12 construct: purchased ProQinase (Freiburg, Germany)
Protocol: as §1

ERK2 = target: T13, ERK2 (Homo sapiens, UniProt P28482)
T13 construct: purchased ProQinase (Freiburg, Germany)
Protocol: as §1

T8 sequence (P37173 23-567): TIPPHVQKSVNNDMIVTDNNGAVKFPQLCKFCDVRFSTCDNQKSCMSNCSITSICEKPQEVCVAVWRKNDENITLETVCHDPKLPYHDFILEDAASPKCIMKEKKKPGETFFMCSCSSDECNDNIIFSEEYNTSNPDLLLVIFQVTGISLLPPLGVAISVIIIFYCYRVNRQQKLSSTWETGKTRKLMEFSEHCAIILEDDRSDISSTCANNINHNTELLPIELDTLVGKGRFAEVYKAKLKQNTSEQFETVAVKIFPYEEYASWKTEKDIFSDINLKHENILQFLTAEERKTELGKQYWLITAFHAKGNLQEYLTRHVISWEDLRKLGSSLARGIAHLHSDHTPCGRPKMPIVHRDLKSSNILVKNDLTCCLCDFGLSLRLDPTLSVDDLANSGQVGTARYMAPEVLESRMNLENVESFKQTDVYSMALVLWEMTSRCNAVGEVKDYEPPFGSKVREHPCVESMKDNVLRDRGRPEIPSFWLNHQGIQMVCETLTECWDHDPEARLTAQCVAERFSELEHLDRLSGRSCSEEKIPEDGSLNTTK
T11 sequence (P53779 whole entry): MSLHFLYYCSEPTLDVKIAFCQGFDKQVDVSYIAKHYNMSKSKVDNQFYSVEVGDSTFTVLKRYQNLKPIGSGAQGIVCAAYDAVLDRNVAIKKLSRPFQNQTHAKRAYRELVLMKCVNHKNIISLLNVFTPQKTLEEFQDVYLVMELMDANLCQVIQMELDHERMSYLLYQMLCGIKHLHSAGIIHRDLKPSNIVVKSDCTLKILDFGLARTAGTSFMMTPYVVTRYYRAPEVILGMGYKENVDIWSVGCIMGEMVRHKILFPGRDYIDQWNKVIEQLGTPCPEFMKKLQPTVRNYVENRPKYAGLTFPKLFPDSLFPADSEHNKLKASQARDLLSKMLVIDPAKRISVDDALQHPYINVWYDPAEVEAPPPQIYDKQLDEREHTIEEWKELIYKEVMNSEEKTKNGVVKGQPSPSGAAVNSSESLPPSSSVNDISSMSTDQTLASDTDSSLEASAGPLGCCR
T12 sequence (P42684 whole entry): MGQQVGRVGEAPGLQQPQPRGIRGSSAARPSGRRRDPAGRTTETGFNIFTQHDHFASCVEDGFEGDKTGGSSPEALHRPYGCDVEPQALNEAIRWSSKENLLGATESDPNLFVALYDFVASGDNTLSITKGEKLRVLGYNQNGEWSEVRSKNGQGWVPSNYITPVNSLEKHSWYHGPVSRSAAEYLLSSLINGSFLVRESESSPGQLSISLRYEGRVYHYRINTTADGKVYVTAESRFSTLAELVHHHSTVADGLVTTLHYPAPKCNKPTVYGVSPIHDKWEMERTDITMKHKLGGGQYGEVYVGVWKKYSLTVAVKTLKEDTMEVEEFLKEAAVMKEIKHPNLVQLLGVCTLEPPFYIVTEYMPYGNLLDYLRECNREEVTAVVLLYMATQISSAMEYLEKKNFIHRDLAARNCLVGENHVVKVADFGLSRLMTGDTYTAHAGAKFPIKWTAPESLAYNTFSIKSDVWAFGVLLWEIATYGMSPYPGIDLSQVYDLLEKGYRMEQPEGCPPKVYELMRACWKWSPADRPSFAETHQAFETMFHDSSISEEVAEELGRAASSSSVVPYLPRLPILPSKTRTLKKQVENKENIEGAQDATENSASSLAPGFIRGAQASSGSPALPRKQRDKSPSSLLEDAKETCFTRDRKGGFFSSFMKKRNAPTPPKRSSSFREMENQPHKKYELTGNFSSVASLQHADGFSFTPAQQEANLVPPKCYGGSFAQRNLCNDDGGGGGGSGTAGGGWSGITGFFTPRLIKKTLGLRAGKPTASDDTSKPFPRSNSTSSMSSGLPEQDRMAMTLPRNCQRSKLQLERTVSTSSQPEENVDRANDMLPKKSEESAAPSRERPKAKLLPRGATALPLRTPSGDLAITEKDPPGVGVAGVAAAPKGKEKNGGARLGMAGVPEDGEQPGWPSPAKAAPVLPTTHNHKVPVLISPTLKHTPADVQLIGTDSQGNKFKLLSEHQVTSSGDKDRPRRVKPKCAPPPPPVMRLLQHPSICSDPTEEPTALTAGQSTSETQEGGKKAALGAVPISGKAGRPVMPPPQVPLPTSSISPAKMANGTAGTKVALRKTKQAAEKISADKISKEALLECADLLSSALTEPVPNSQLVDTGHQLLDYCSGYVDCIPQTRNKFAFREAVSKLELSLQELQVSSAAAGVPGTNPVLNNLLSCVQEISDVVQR
T6 sequence (P54764 20-986): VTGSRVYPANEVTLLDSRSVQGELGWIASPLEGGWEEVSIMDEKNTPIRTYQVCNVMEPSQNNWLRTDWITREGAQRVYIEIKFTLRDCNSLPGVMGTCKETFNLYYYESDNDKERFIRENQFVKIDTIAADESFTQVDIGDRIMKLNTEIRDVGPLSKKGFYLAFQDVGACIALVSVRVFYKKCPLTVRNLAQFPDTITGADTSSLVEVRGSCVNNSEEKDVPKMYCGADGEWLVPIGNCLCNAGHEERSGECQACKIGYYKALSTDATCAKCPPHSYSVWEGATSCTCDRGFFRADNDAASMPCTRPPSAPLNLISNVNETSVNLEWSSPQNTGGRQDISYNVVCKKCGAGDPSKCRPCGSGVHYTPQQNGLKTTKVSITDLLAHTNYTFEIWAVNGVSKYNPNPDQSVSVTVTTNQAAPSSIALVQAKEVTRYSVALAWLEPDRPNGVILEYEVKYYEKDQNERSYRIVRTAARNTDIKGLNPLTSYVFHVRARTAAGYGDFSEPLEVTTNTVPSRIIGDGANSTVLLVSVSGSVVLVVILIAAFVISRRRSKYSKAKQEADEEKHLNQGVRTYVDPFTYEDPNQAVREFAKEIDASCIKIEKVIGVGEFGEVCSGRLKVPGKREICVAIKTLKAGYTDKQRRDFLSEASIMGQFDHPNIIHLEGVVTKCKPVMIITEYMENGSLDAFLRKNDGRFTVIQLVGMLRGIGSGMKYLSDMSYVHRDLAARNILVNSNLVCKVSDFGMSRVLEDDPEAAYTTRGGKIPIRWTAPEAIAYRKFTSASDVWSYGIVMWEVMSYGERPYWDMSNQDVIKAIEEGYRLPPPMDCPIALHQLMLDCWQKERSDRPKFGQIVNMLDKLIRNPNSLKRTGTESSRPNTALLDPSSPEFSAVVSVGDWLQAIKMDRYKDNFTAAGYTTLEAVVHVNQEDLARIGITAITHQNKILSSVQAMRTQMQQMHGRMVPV
T7 sequence (P06493 whole entry): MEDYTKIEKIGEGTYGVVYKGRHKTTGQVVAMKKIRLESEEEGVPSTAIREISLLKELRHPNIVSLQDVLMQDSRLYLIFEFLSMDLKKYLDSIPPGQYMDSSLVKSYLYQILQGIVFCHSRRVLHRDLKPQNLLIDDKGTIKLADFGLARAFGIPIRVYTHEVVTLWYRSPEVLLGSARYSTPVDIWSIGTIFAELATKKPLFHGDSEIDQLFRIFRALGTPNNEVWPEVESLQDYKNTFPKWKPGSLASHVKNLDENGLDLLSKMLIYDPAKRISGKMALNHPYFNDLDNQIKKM
T7 sequence (P24864 whole entry partner): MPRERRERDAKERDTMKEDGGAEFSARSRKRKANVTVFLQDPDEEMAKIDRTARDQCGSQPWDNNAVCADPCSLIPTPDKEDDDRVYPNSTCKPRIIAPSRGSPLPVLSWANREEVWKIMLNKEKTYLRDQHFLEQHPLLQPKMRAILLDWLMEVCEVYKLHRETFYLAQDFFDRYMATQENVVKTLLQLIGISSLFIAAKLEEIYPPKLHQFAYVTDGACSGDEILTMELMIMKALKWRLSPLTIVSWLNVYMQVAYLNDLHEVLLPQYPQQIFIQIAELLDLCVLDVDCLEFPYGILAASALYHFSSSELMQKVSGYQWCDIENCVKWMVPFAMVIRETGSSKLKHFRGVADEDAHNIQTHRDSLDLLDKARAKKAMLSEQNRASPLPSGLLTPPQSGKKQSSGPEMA
T3 sequence (P49840 whole entry): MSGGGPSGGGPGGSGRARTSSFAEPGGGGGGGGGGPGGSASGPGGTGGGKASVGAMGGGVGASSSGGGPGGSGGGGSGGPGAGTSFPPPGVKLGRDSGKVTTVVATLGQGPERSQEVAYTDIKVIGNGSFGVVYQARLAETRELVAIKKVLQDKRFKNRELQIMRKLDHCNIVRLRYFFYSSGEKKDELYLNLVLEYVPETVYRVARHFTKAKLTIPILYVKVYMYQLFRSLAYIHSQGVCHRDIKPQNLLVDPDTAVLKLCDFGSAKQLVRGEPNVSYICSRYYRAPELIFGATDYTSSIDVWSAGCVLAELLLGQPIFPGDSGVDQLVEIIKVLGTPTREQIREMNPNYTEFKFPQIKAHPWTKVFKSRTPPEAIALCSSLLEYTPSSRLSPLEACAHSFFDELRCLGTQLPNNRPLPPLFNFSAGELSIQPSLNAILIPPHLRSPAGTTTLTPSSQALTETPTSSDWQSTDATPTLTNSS
T13 sequence (P28482 whole entry): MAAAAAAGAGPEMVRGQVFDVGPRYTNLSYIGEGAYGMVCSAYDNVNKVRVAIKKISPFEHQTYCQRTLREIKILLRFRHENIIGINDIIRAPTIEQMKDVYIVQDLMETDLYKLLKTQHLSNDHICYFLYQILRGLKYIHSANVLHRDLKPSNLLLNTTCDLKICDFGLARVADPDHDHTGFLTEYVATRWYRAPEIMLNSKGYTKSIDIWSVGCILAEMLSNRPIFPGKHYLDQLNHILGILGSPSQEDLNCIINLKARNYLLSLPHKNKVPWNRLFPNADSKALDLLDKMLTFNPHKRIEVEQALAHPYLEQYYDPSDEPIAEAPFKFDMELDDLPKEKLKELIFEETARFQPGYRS

Structure (SMILES)	Residual activity (MINK1; 1.0E-05 M)	Residual activity (MINK1; 1.0E-06 M)	Residual activity (RPS6KA5; 1.0E-05 M)	Residual activity (RPS6KA5; 1.0E-06 M)	Residual activity (GSK3alpha; 1.0E-05 M)	Residual activity (GSK3alpha; 1.0E-06 M)	Residual activity (MST2; 1.0E-05 M)	Residual activity (MST2; 1.0E-06 M)	Residual activity (MAP4K2; 1.0E-05 M)	Residual activity (MAP4K2; 1.0E-06 M)	Residual activity (EPHA4; 1.0E-05 M)	Residual activity (EPHA4; 1.0E-06 M)	Residual activity (CDK1/CycE1; 1.0E-05 M)	Residual activity (CDK1/CycE1; 1.0E-06 M)	Residual activity (TGFBR2; 1.0E-05 M)	Residual activity (TGFBR2; 1.0E-06 M)	Residual activity (MAP3K11; 1.0E-05 M)	Residual activity (MAP3K11; 1.0E-06 M)	Residual activity (PKCepsilon; 1.0E-05 M)	Residual activity (PKCepsilon; 1.0E-06 M)	other results
O=C(Cc1ccccc1)Nc1ccc(F)c(Nc2ccc3c(c2)CCCCC3=O)c1 [Compound 100]	73 % of control	89 % of control	97 % of control	104 % of control	90 % of control	109 % of control	82 % of control	94 % of control	71 % of control	94 % of control	88 % of control	97 % of control	100 % of control	102 % of control	74 % of control	79 % of control	118 % of control	109 % of control	107 % of control	107 % of control	Residual activity (JNK3; 1.0E-05 M): 119 % of control; Residual activity (JNK3; 1.0E-06 M): 96 % of control; Residual activity (ABL2; 1.0E-05 M): 93 % of control; Residual activity (ABL2; 1.0E-06 M): 97 % of control; Residual activity (ERK2; 1.0E-05 M): 90 % of control; Residual activity (ERK2; 1.0E-06 M): 101 % of control
O=C(Nc1ccc(F)c(Nc2ccc3c(c2)CCCCC3=O)c1)c1cccc(F)c1 [Compound 109]	57 % of control	86 % of control	93 % of control	96 % of control	106 % of control	112 % of control	75 % of control	90 % of control	93 % of control	95 % of control	90 % of control	86 % of control	98 % of control	96 % of control	79 % of control	82 % of control	110 % of control	108 % of control	103 % of control	104 % of control	Residual activity (JNK3; 1.0E-05 M): 92 % of control; Residual activity (JNK3; 1.0E-06 M): 83 % of control; Residual activity (ABL2; 1.0E-05 M): 92 % of control; Residual activity (ABL2; 1.0E-06 M): 95 % of control; Residual activity (ERK2; 1.0E-05 M): 93 % of control; Residual activity (ERK2; 1.0E-06 M): 95 % of control
